This test relates to H358 cells. The experiment in a line: Cell activity experiment: activity test of H358 cells (MTT, 5 days). The format is cell-based. As to conditions: Homo sapiens, NCI-H358, 120 h, 5 days incubation, absorbance 492 nm. An outline of the steps: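 H358 cells seeded 90 μL at 55555 cells/mL, grown 24 h, then exposed to 3-fold serial compound dilutions (final top 10000 nM, 0.5% DMSO) in triplicate for 5 days at 37° C., 5% CO2. Viability by MTT (4 h), formazan dissolved in DMSO, absorbance at 492 nm.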

By IC50 is commonly meant the concentration that inhibits the measured activity by half. The low end stands for inhibition by little substance, the high end for a need for much substance.

For `C=CC(=O)N1CCN(c2nc(Oc3cccc4c3CCN(C)C4)nc3cc(-c4cccc5c4CCCC5)ccc23)C[C@@H]1CC#N` [Example 109], the IC50 is 287 nM. This lies in the sub-micromolar range.
Consider `C=CC(=O)N1CCN(c2nc(OC[C@@H]3CCCN3C)nc3cc(-c4cccc5c4CCCC5)ccc23)C[C@@H]1CC#N` [Example 110, 2-((S)-1-acryloyl-4-(2-(((S)-1-methylpyrrolidin-2-yl)methoxy)-7-(5,6,7,8-tetrahydronaphthalen-1-yl)quinazolin-4-yl)piperazin-2-yl)acetonitrile], for which inhibition was half-maximal at 35 nM (IC50).
Molecule `C=C(F)C(=O)N1CCN(c2nc(OC[C@@H]3CCCN3C)nc3cc(-c4cccc5c4CCCC5)ccc23)C[C@@H]1CC#N` [Example 111] registered an IC50 of 140 nM.
The same measure for `C=CC(=O)N1CCN(c2nc(OC[C@@H]3C[C@@H](F)CN3C)nc3cc(-c4cccc5c4CCCC5)ccc23)C[C@@H]1CC#N` [Example 112]: 38 nM.
On to `C=C(F)C(=O)N1CCN(c2nc(OC[C@@H]3C[C@@H](F)CN3C)nc3cc(-c4cccc5c4CCCC5)ccc23)C[C@@H]1CC#N` [Example 113], for which the IC50 amounted to 150 nM.
The same measure for `C=CC(=O)N1CCN(c2nc(OCC34CCCN3CCC4)nc3cc(-c4cccc5c4CCCC5)ccc23)C[C@@H]1CC#N` [Example 114, (S)-2-(1-acryloyl-4-(2-((tetrahydro-1H-pyrrolizin-7a(5H)-yl)methoxy)-7-(5,6,7,8-tetrahydronaphthalen-1-yl)quinazolin-4-yl)piperazin-2-yl)acetonitrile]: 20 nM; for `C=C(F)C(=O)N1CCN(c2nc(OCC34CCCN3CCC4)nc3cc(-c4cccc5c4CCCC5)ccc23)C[C@@H]1CC#N` [Example 115]: 45 nM; for `C=CC(=O)N1CCN(c2nc(OCC34CCCN3C[C@H](F)C4)nc3cc(-c4cccc5c4CCCC5)ccc23)C[C@@H]1CC#N` (some centres unmarked) [Example 116]: 15 nM.
`C=C(F)C(=O)N1CCN(c2nc(OCC34CCCN3C[C@H](F)C4)nc3cc(-c4cccc5c4CCCC5)ccc23)C[C@@H]1CC#N` (some centres unmarked) [Example 117] displayed an IC50 of 30 nM.
For `C=CC(=O)N1CCN(c2nc(OC[C@@H]3CCCN3C)nc3cc(-c4cncc5cccc(Cl)c45)ccc23)C[C@@H]1CC#N` [Example 126, 2-((S)-1-acryloyl-4-(7-(5-chloroisoquinolin-4-yl)-2-((((S)-1-methylpyrrolidin-2-yl)methoxy)quinazolin-4-yl])piperazin-2-yl)acetonitrile], the midpoint of inhibition, the IC50, lay at 18 nM. Compared with the last molecule, the IC50 is about 1.7-fold lower.
As for `C=C(F)C(=O)N1CCN(c2nc(OC[C@@H]3CCCN3C)nc3cc(-c4cncc5cccc(Cl)c45)ccc23)C[C@@H]1CC#N` [Example 127], the IC50 stood at 72 nM.
The same measure for `C=CC(=O)N1CCN(c2nc(OC[C@@H]3C[C@@H](F)CN3C)nc3cc(-c4cncc5cccc(Cl)c45)ccc23)C[C@@H]1CC#N` [Example 128, 2-((S)-1-acryloyl-4-(7-(5-chloroisoquinolin-4-yl)-2-((((2S,4R)-4-fluoro-1-methylpyrrolidin-2-yl)methoxy))quinazolin-4-yl)piperazin-2-yl)acetonitrile]: 20 nM.
Consider `C=C(F)C(=O)N1CCN(c2nc(OC[C@@H]3C[C@@H](F)CN3C)nc3cc(-c4cncc5cccc(Cl)c45)ccc23)C[C@@H]1CC#N` [Example 129], for which the IC50 came to 50 nM.
`C=CC(=O)N1CCN(c2nc(OCC34CCCN3CCC4)nc3cc(-c4cncc5cccc(Cl)c45)ccc23)C[C@@H]1CC#N` [Example 130, (S)-2-(1-acryloyl-4-(7-(5-chloroisoquinolin-4-yl)-2-((tetrahydro-1H-pyrrolizin-7a(5H)-yl)methoxy)quinazolin-4-yl)piperazin-2-yl)acetonitrile] came in with an IC50 of 8 nM.
The molecule `C=C(F)C(=O)N1CCN(c2nc(OCC34CCCN3CCC4)nc3cc(-c4cncc5cccc(Cl)c45)ccc23)C[C@@H]1CC#N` [Example 131, (S)-2-(4-(7-(5-chloroisoquinolin-4-yl)-2-((tetrahydro-1H-pyrrolizin-7a(5H)-yl)methoxy)quinazolin-4-yl)-1-(2-fluoroacryloyl)piperazin-2-yl)acetonitrile] displayed an IC50 of 16 nM.
The same measure for `C=CC(=O)N1CCN(c2nc(OCC34CCCN3C[C@H](F)C4)nc3cc(-c4cncc5cccc(Cl)c45)ccc23)C[C@@H]1CC#N` (some centres unmarked) [Example 132]: 3 nM; for `C=C(F)C(=O)N1CCN(c2nc(OCC34CCCN3C[C@H](F)C4)nc3cc(-c4cncc5cccc(Cl)c45)ccc23)C[C@@H]1CC#N` (some centres unmarked) [Example 133]: 8 nM; for `C=CC(=O)N1CCN(c2nc(OC[C@@H]3CCCN3C)nc3cc(-c4cncc5c4CCCC5)ccc23)C[C@@H]1CC#N` [Example 142]: 20 nM.
`C=C(F)C(=O)N1CCN(c2nc(OC[C@@H]3CCCN3C)nc3cc(-c4cncc5c4CCCC5)ccc23)C[C@@H]1CC#N` [Example 143] displayed an IC50 of 80 nM.
As for `C=CC(=O)N1CCN(c2nc(OC[C@@H]3C[C@@H](F)CN3C)nc3cc(-c4cncc5c4CCCC5)ccc23)C[C@@H]1CC#N` [Example 144], it took 25 nM to reach half-maximal inhibition (IC50). Compared with the last molecule, the IC50 is about 3.2-fold lower.
The same measure for `C=C(F)C(=O)N1CCN(c2nc(OC[C@@H]3C[C@@H](F)CN3C)nc3cc(-c4cncc5c4CCCC5)ccc23)C[C@@H]1CC#N` [Example 145]: 102 nM.
The same measure for `C=CC(=O)N1CCN(c2nc(OCC34CCCN3CCC4)nc3cc(-c4cncc5c4CCCC5)ccc23)C[C@@H]1CC#N` [Example 146, (S)-2-(1-acryloyl-4-(2-((tetrahydro-1H-pyrrolizin-7a(5H)-yl)methoxy)-7-(5,6,7,8-tetrahydroisoquinolin-4-yl)quinazolin-4-yl)piperazin-2-yl)acetonitrile]: 10 nM.
In turn, `C=C(F)C(=O)N1CCN(c2nc(OCC34CCCN3CCC4)nc3cc(-c4cncc5c4CCCC5)ccc23)C[C@@H]1CC#N` [Example 147] displayed a half-inhibitory concentration (IC50) of 18 nM. Compared with the last molecule, the IC50 is about 1.8-fold higher.
As for `C=CC(=O)N1CCN(c2nc(OCC34CCCN3C[C@H](F)C4)nc3cc(-c4cncc5c4CCCC5)ccc23)C[C@@H]1CC#N` (some centres unmarked) [Example 148], the figure is 5 nM; as for `C=C(F)C(=O)N1CCN(c2nc(OCC34CCCN3C[C@H](F)C4)nc3cc(-c4cncc5c4CCCC5)ccc23)C[C@@H]1CC#N` (some centres unmarked) [Example 149], 10 nM.
As for `C=CC(=O)N1CCN(c2nc(OC[C@@H]3CCCN3C)nc3c(F)c(-c4cncc5cccc(Cl)c45)ccc23)C[C@@H]1CC#N` [Example 158, 2-((S)-1-acryloyl-4-(7-(5-chloroisoquinolin-4-yl)-8-fluoro-2-(((S)-1-methylpyrrolidin-2-yl)methoxy)quinazolin-4-yl)piperazin-2-yl)acetonitrile], the figure is 4 nM; as for `C=C(F)C(=O)N1CCN(c2nc(OC[C@@H]3CCCN3C)nc3c(F)c(-c4cncc5cccc(Cl)c45)ccc23)C[C@@H]1CC#N` [Example 159], 18 nM.
As for `C=CC(=O)N1CCN(c2nc(OC[C@@H]3C[C@@H](F)CN3C)nc3c(F)c(-c4cncc5cccc(Cl)c45)ccc23)C[C@@H]1CC#N` [Example 160], the midpoint of inhibition, the IC50, lay at 5 nM.
`C=C(F)C(=O)N1CCN(c2nc(OC[C@@H]3C[C@@H](F)CN3C)nc3c(F)c(-c4cncc5cccc(Cl)c45)ccc23)C[C@@H]1CC#N` [Example 161] came in with an IC50 of 20 nM.

(Values after US20240109893A1, “PREPARATION AND APPLICATION METHOD OF HETEROCYCLIC COMPOUNDS AS KRAS INHIBITOR” (SHANGHAI KECHOW PHARMA, INC., priority 2020, published 2024).)
